Reference: US20230329236A1, “HERBICIDAL PYRIMIDINE DERIVATIVES” (MoA Technology Limited, priority 2020, published 2023)

Legend:
Settings in all cases: 336 h, Table 3, post-emergence, 14±1 days post application
Veronica persica (VERPE) = assay: Post-emergence glasshouse test, visual injury, VERPE; type: in vivo
Procedure: (§1) Seeds of a variety of test species are grown in a sandy loam soil mixture, Lolium multiflorum (LOLMU), Amaranthus retroflexus (AMARE), Echinochloa crus-gaffi (ECHCG), Veronica persica (VERPE), Glycine max (GLXMA), Oryza sativa (ORYSA), Zea mays (ZEAMX), spring wheat (TRZAS), Ipomoea hederacea (IPOHE), Ipomoea purpurea (PHBPU), Stellaria media (STEME), Solanum nigrum (SOLNI), Digitaria sanguinalis (DIGSA), Setaria italica (SETIT), Alopecurus myosuroides (ALOMY) and Avena fatua (AVEFA).
(§2) After sowing, at growth stage BBCH 12-14 (post-emergence), the plants are sprayed with an aqueous spray solution derived from the formulation of the technical active ingredient in acetone/water (50:50) solution containing 0.5% Tween 20 (polyoxyethlyene sorbitan monolaureate, CAS RN 9005-64-5). The test compounds are applied at the required concentration of active ingredient in g/ha. The test plants are then grown in a glasshouse under controlled environmental conditions and watered regularly as required. After 14±1 days post application (for post-emergence test), the test is evaluated by assessing the percentage damage caused to the plants in comparison with the untreated plots. The biological activities for post-emergence testing are shown below (Table 3 and Table 4) as a % visual injury.

[1] = tested on: Amaranthus retroflexus (AMARE); assay: Post-emergence glasshouse test, visual injury, AMARE; type: in vivo
Procedure: as §1, §2

[2] = tested on: Echinochloa crus-gaffi (ECHCG); assay: Post-emergence glasshouse test, visual injury, ECHCG; type: in vivo, Echinochloa crus-galli
Procedure: as §1, §2

[3] = tested on: Lolium multiflorum (LOLMU); assay: Post-emergence glasshouse test, visual injury, LOLMU; type: in vivo
Procedure: as §1, §2

| Structure (SMILES) | pest or weed control at 500 g/ha (Veronica persica (VERPE)) | pest or weed control at 500 g/ha [1] | pest or weed control at 500 g/ha [2] | pest or weed control at 500 g/ha [3] | other results |
| --- | --- | --- | --- | --- | --- |
| Cc1ncc(-c2cnc(NC3CCCC3)nc2C(C)C)s1 [Compound 123] | – | – | – | – | pest or weed control at 62 g/ha (Veronica persica (VERPE)): 50%; pest or weed control at 62 g/ha [1]: 0%; pest or weed control at 62 g/ha [2]: 0%; pest or weed control at 62 g/ha [3]: 0% |
| Cc1cc(-c2cnc(NC3CCCC3)nc2C2CC2)on1 [Compound 13, N-cyclopentyl-4-cyclopropyl-5-(3-methyl-1,2-oxazol-5-yl)pyrimidin-2-amine] | – | – | – | – | pest or weed control at 125 g/ha (Veronica persica (VERPE)): 70%; pest or weed control at 250 g/ha (Veronica persica (VERPE)): 100%; pest or weed control at 125 g/ha [1]: 80%; pest or weed control at 250 g/ha [1]: 100%; pest or weed control at 125 g/ha [2]: 80%; pest or weed control at 250 g/ha [2]: 100%; pest or weed control at 125 g/ha [3]: 40%; pest or weed control at 250 g/ha [3]: 80% |
| Cc1cc(-c2cnc(N(C)C)nc2-c2ccc(C)o2)on1 [Compound 43] | 0% | 50% | 60% | 40% | – |
| Cc1cc(-c2cnc(NCc3cccs3)nc2C2CC2)on1 [Compound 80] | 60% | 60% | 80% | 30% | – |
| Cc1cc(-c2cnc(N3CCC(O)C(C)C3)nc2-c2ccc(C)o2)on1 (centres unmarked) [Compound 36] | 0% | 30% | 30% | 0% | – |
| Cc1cc(-c2cnc(NCc3ccccc3F)nc2C2CC2)on1 [Compound 81] | 80% | 98% | 80% | 30% | – |
| Cc1cc(-c2cnc(NCc3ccncc3)nc2-c2ccc(C)o2)on1 [Compound 21] | 90% | 50% | 20% | 0% | – |
| Cc1cc(-c2cnc(NC3CCC3)nc2C(F)(F)F)on1 [Compound 110] | – | – | – | – | pest or weed control at 125 g/ha (Veronica persica (VERPE)): 0%; pest or weed control at 125 g/ha [1]: 0%; pest or weed control at 125 g/ha [2]: 0%; pest or weed control at 125 g/ha [3]: 40% |
| CC(=O)N1CCN(c2ncc(-c3cc(C)no3)c(-c3ccncc3)n2)CC1 [Compound 59] | 90% | 0% | 0% | 50% | – |
| Cc1cc(-c2cnc(N3CCCCC3)nc2C(C)(C)C)on1 [Compound 48] | 0% | 20% | 10% | 70% | – |
| COc1ccc(CNc2ncc(-c3onc(C)c3C)c(-c3ccco3)n2)cc1 [Compound 77] | 70% | 70% | 80% | 70% | – |
| Cc1cc(-c2cnc(NCCc3c(C)noc3C)nc2C2CC2)on1 [Compound 46] | 50% | 90% | 70% | 60% | – |
| Cc1cc(-c2cnc(NCc3cccc(C#N)c3)nc2C(C)C)on1 [Compound 97] | – | – | – | – | pest or weed control at 62 g/ha (Veronica persica (VERPE)): 70%; pest or weed control at 62 g/ha [1]: 50%; pest or weed control at 62 g/ha [2]: 70%; pest or weed control at 62 g/ha [3]: 20% |
| Cc1cc(-c2cnc(NCc3ccc(F)cc3)nc2C(C)C)on1 [Compound 93] | – | – | – | – | pest or weed control at 125 g/ha (Veronica persica (VERPE)): 100%; pest or weed control at 125 g/ha [1]: 100%; pest or weed control at 125 g/ha [2]: 80%; pest or weed control at 125 g/ha [3]: 60% |
| Cc1cc(-c2cnc(NCC3CCOCC3)nc2C(C)C)on1 [Compound 109] | – | – | – | – | pest or weed control at 125 g/ha (Veronica persica (VERPE)): 70%; pest or weed control at 125 g/ha [1]: 40%; pest or weed control at 125 g/ha [2]: 0%; pest or weed control at 125 g/ha [3]: 0% |
| Cc1cc(-c2cnc(NC(C)C)nc2-c2ccc(C)o2)on1 [Compound 51] | 0% | 0% | 70% | 0% | – |
| Cc1cc(-c2cnc(N3CCCCCC3)nc2C(C)C)on1 [Compound 49] | 30% | 50% | 60% | 0% | – |
| CCN(CC)c1ncc(-c2cc(C)no2)c(C(C)C)n1 [Compound 10] | – | – | – | – | pest or weed control at 250 g/ha (Veronica persica (VERPE)): 0%; pest or weed control at 250 g/ha [1]: 0%; pest or weed control at 250 g/ha [2]: 30%; pest or weed control at 250 g/ha [3]: 0% |
| Cc1cc(-c2cnc(NCCn3nccc3C)nc2C(C)C)on1 [Compound 41] | 50% | 95% | 60% | 30% | – |
